Assay results from publication PMC8294803, “A Roadmap to the Structure-Related Metabolism Pathways of Per- and Polyfluoroalkyl Substances in the Early Life Stages of Zebrafish (Danio rerio)” (Environmental Health Perspectives, 2021).
Where “and” joins values, the source holds several entries; their conditions need not be identical. Equal entries are not always repeated. Entries after “also recorded” stand apart in the source; their conditions may differ.

Key:
[1] = system: zebrafish larvae; experiment: Identification of taurine conjugates by the DIPIC-Frag method in zebrafish larvae; format: in vivo, Danio rerio; settings: among 74 PFAS
Text: To identify the taurine conjugates in zebrafish larvae exposed to PFAS, we used the data-independent precursor isolation and characteristic fragment (DIPIC-Frag) method developed in previous studies ([Peng et al. 2015], [2016]) to enhance the coverage inspired by the detection of the characteristic fragment from taurine conjugates ( [taurine-H]^− , m/z 124.0063). Then, the taurine fragment peak was extracted from each AIF window across all 243 raw MS data. Once the taurine fragment peak was detected, corresponding precursor ions were identified from the same window and sample by aligning their chromatographic peaks. The precursor ions were further confirmed by their co-occurrences with the taurine fragment across samples. Once precursor ions were identified, the compound formulas and structures were predicted by interpreting high-resolution MS and MS/MS spectra, as mentioned above.

[2] = system: zebrafish embryos; settings: for pericardial oedemata, Mean / spinal curvature, Mean / tail dysplasia, Mean: 5μM through 120 hpf, malformation rate; for Mortality (%): 5 µM, exposure through 120 hpf
[3] = system: zebrafish embryos; experiment: Time courses of carboxamides and PFCA metabolites in zebrafish embryos/larvae; format: in vivo, Danio rerio; settings: zebrafish exposed to 5 μM of 19, 31 and 38 separately, N=20, three replicates
Protocol: Time courses of carboxamides (19, 31, and 38) and corresponding perfluoroalkyl carboxylic acid (PFCA) metabolites in zebrafish larvae were investigated. The procedure of zebrafish embryo collection was described above. Twenty embryos were randomly assigned into each well of a 24-well plate. Subsequently, 15 wells were dosed with 3mL of each chemical ( 5μM ). […] The exposure medium was prepared fresh and changed each day, and dead larvae were discarded. For each chemical, 3 wells were harvested every 24 h, and the surviving larvae were transferred to three different tubes for further PFAS extraction ( N=12–18 ).

[4] = system: zebrafish larvae; experiment: Bioconcentration factors (BCF) of PFAS in zebrafish larvae; settings: for BCF: exposure concentration not given
Protocol: (§1) Zebrafish embryos were collected immediately after spawning, within 1 h, and subsequently transferred to 24-well plates with 1mL of facility water ( 0.036g sea salt, 0.15g sodium bicarbonate in 2L of reverse osmosis water). […] Three well replicates on the same plate were conducted for each concentration of individual chemical. […] Seven batches of experiments were performed to test all 74 PFAS. DMSO controls were incorporated in each batch of exposure experiments. Three replicates were performed for each treatment group, and 20 embryos were used for each replicate. […] For daily replenishment, 2.5mL of old exposure medium were replaced with freshly prepared medium every 24 h from 24 to 96 h post fertilization (hpf). Hatched or dead embryo numbers were recorded every 24 hpf, after which dead embryos were discarded from the growth media. Dead embryos or unhatched embryos were not used for PFAS measurement because the metabolism of PFAS might have been impacted. Zebrafish larvae collection occurred at 120 hpf. First, the larvae were anesthetized by cooling the plate in ice water (0–4°C) for ∼20 min . Then 8–15 larvae in each well were transferred into 1.5-mL tubes. Exposure media was carefully removed, and then the larvae were weighed (wet weight) after blotting excess water with a paper towel. […] Samples were stored at −80 °C until further chemical analysis was performed. Survival rate and hatching rate were calculated by summarizing all the documented data from the whole treatment duration. […] The exposure experiment of PFOSA was repeated using the same procedure as described above.
(§2) Each sample was spiked with 2μL of 0.2μg/mL mass-labeled PFAS mixture. Following this, 500μL of dichloromethane/methanol (2:1, vol/vol) was added to each sample for PFAS extraction. Larvae were then homogenized via ultrasonic probe, followed by 30 min of shaking and 30 min of sonication. Each sample was centrifuged at 14,000×g for 5 min, after which the supernatant was transferred to new tubes. Extraction was repeated once and the two supernatants were combined, evaporated under nitrogen flow, and reconstituted in 200μL of methanol for MS analysis.
(§3) Three microliters of each zebrafish extract was applied to a C18 column ( 1.5μm; 2.1mm×50mm; Thermo Scientific) and analyzed using a Vanquish ultra-HPLC system (Thermo Fisher Scientific) coupled to a Q Exactive high-resolution mass spectrometer (Thermo Fisher Scientific). The sampler and column compartments were maintained at 4°C and 40°C, respectively. The aqueous mobile phase solution (A) consisted of water, whereas the organic mobile phase solution (B) consisted of acetonitrile. […] MS data was acquired in full scan mode (100–1000 m/z, 70,000 mass resolution, 3×10^6 maximum ions collected per 100 ms), and tandem MS (MS/MS) data was recorded by all-ion fragmentation (AIF) mode. Negative and positive ion modes were carried out simultaneously at a 10-min method duration. […] An overview of the analyses conducted on the various PFAS is available in Table S2.
GraphPad Prism (version 7.0.4; GraphPad Software) and R studio (version 1.1.456; R Studio Inc.) software was used, and an ANOVA with Dunnett tests was employed to evaluate the statistical significance of the percentage hatched and mortality rate. Exponential regressions were used to determine the relationships between bioconcentration factor (BCF) and binding affinities ( Kd ) to L-FABP.

[5] = system: zebrafish larvae; experiment: Nontargeted analysis of PFAS metabolites in zebrafish larvae (high-resolution MS); settings: for Metabolites / hydrolysis products in zebrafish larvae: in vivo, nontargeted analysis
Protocol: as §1, §2, §3
Nontargeted data analysis was accomplished with R scripts that are available on Github (https://github.com/huiUofT/PFASmetabolite). […] The peak features were matched across samples with a mass tolerance of 2.5 ppm and a RT window of 20 s, after RT adjustment. The ratio of abundances of each feature in treatment groups relative to the control group (DMSO) was calculated. The p -values of the difference between two groups were determined by student’s t -tests.

[6] = target: liver fatty acid binding protein (L-FABP); parameters: method as in Yang et al. 2020; settings: ref Yang et al. 2020; read-out: Kd (μM), L-FABP binding affinity; cited from earlier work
[7] = target: T1, recombinant human liver carboxylesterase 1 (hCES1) (Homo sapiens, UniProt P23141); experiment: Hydrolysis of PFAS by recombinant hCES1; format: in vitro ADME; settings: for percentage of polyfluoroalkyl carboxamide 19, hCES1: 100 μg/L hCES1; for percentage of polyfluoroalkyl carboxamide 19, hCES1 / percentage of polyfluoroalkyl carboxamide 19, Control: 37 °C, 1 hour, N=3; for percentage of polyfluoroalkyl carboxamide 19, Control: vehicle control without hCES1; for Parent PFAS, hCES1 (%) / Parent PFAS, Control (%): 10 μM PFAS, single replicates; for Parent PFAS, hCES1 (%): 100 μg/L hCES1, phosphate buffer 37 °C 1 hour, axis %Control; for Parent PFAS, Control (%): without hCES1, phosphate buffer 37 °C 1 hour
T1 construct: purchased Sigma Aldrich
T1 sequence (P23141 18-567): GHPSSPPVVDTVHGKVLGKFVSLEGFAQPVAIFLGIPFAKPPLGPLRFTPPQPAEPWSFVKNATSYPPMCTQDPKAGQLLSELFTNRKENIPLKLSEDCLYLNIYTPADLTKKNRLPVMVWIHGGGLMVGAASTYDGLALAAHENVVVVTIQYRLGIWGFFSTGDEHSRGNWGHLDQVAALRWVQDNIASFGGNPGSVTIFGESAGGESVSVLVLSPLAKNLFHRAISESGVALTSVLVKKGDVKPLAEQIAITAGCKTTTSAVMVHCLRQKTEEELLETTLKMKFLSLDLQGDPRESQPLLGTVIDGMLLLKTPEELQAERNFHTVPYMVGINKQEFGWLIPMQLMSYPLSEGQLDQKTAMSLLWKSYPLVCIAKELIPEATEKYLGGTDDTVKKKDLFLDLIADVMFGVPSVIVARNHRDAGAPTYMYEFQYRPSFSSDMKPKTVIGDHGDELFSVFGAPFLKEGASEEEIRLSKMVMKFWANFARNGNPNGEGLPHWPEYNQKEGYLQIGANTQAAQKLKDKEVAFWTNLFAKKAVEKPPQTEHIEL
Protocol: Because recombinant zebrafish CES is not available, we decided to use hCES1 to evaluate the structure-related hydrolysis of PFAS. […] In vitro enzymatic activity experiments were carried out for 1 h in 1.5-mL tubes with 100μL phosphate buffer ( 137 mM sodium chloride, 10 mM phosphate buffer, 2.7 mM potassium chloride; pH 7.4) at 37°C with shaking. Reaction mixtures contained different concentrations of PFAS (1, 10, and 50μM ) and 100μg/L hCES1. […] To stop the hydrolysis reaction, four times the volume of ice-cold methanol was added. The hCES1 protein was precipitated out by centrifugation ( 14,000×g , 10 min). The supernatant was transferred to a new tube and analyzed via MS for the analysis of parent compounds and suspected metabolites (i.e., carboxylates).

Compound	pericardial oedemata, Mean [2] [%]	spinal curvature, Mean [2] [%]	tail dysplasia, Mean [2] [%]	Mortality (%) [2] [%]	Peak intensity in zebrafish ([3]; 24 hpf)	Peak intensity in zebrafish ([3]; 48 hpf)	Peak intensity in zebrafish ([3]; 72 hpf)	Peak intensity in zebrafish ([3]; 96 hpf)	Peak intensity in zebrafish ([3]; 120 hpf)	BCF ([4]; zebrafish larvae) [L/kg]	Metabolites / hydrolysis products in zebrafish larvae [5]	Parent PFAS, hCES1 (%) [7]	Parent PFAS, Control (%) [7]	further results
3-(Perfluoro-2-butyl)propane-1,2-diol [compound 30]	2.22	2.22	0.00	0										Taurine conjugates detected [1]: taurine conjugates were detected
O=C(O)C(F)(F)C(F)(F)C(F)(F)C(F)F [1H-PFPeA]					41617598 and 43836041 and 44656574	60989972 and 64452114 and 58767796	101000000 and 97804534 and 98584848	168000000 and 176000000 and 174000000	221000000 and 206000000 and 215000000					
O=C(O)C(F)(F)C(F)(F)C(F)(F)F [PFBA (12)]					10634213 and 16343253 and 15866316	25172596 and 26956389 and 28007592	26852594 and 32851030 and 26877542	47637483 and 46740315 and 40653414	68162507 and 69974600 and 72855428					
O=C(O)C(F)(F)C(F)(F)C(F)(F)C(F)(F)F [PFPeA, perfluoropentanoic acid]					42022849 and 47643542 and 46800668	46439212 and 83368187 and 82483907	149000000 and 148000000 and 143000000	242000000 and 252000000 and 243000000	224000000 and 215000000 and 223000000					
O=C(O)C(F)(F)C(F)(F)C(F)F [compound 4, 4H-Perfluorobutanoic acid]	1.11	2.22	0.00	0										Concentration in zebrafish larvae directly exposed ([4]; 5μM of the PFCA itself): 7.0 ± 1.3 µM; BCF 0.5µM ([4]; zebrafish larvae, 0.5 µM exposure, 120 hpf, three replicates): 3.397 L/kg; BCF 5µM ([4]; zebrafish larvae, 5 µM exposure, 120 hpf, three replicates): 1.9 ± 0.4 L/kg; Peak intensity of PFCA in zebrafish embryos directly exposed to the PFCA ([5]; 5μM through 120 hpf, single replicates, listed as 1H-PFBA): 18758096 and 21668103 and 32644288; Kd [6]: 352 µM
NC(=O)C(F)(F)C(F)(F)C(F)(F)C(F)(F)F [compound 19, Nonafluoropentanamide]	0.00	0.00	0.00	1.1						< 10	high abundances of metabolized carboxylates were detected	0.00%	100.46% and 90.28% and 109.26%	percentage of polyfluoroalkyl carboxamide 19, hCES1 ([7]; 1 μM 19): 0.00%; percentage of polyfluoroalkyl carboxamide 19, Control ([7]; 1 μM 19): 114.95% and 85.05%; percentage of polyfluoroalkyl carboxamide 19, hCES1 ([7]; 10 μM 19): 0.00%; percentage of polyfluoroalkyl carboxamide 19, Control ([7]; 10 μM 19): 100.46% and 90.28% and 109.26%; Parent hydrolyzed by hCES1 ([7]; 10μM PFAS, 100μg/L hCES1): completely metabolized; percentage of polyfluoroalkyl carboxamide 19, hCES1 ([7]; 50 μM 19): 62.27% and 65.75% and 66.90%; percentage of polyfluoroalkyl carboxamide 19, Control ([7]; 50 μM 19): 96.65% and 95.06% and 108.30%
NC(=O)C(F)(F)C(F)(F)C(F)(F)F [compound 31, Heptafluorobutyramide]	0.00	0.00	0.00	2.2						< 10	high abundances of metabolized carboxylates were detected	88.80% and 125.28% and 71.56%	98.24% and 100.70% and 101.05%	
NC(=O)C(F)(F)C(F)(F)C(F)(F)C(F)(F)C(N)=O [compound 58, Octafluoroadipamide]	1.11	1.11	0.00	6.7						< 10	metabolites were not detected; also recorded: no metabolite was detected	97.41% and 90.44% and 135.26%	83.59% and 76.79% and 139.62%	Concentration of hydrolysis product ([7]; from 10μM of parent, 100μg/L hCES1, 37°C): not detected
